Measurements published in patent US20240251807A1, “SYSTEMS AND METHODS FOR DISPERSING ACTIVE INGREDIENTS” (Hazel Technologies, Inc., priority 2021, published 2024).

Tests used:
Format in all cases: physicochemical
[1] = 1-MCP buildup and retention in sealed vs unsealed apple storage room, box fan device; settings: 2-6° C., after 15 hours of running the fan, 0.5 kg activated carbon bed
Method: This example describes release of an active ingredient into an enclosure using a device and system as described in this disclosure. Specifically, gaseous 1-MCP buildup and retention in an enclosure in the form of a sealed apple room was compared to buildup and retention in an unsealed apple storage room.
A pump in the form of a 20″×20″ box fan was placed inside of a 33,264 cubic foot apple storage room kept at a temperature between 2-6° C., with the fan facing up and elevated several inches from the ground to allow space for air to enter the fan from below. The device was assembled by placing a metal air filter housing and a 20″×20″ air filter (Nordic Pure® Part 20201.8-3) on top of the fan, to which was added a 0.5 kg bed of a particulate delivery material in the form of activated carbon powder associated with an activate ingredient in the form of 1-MCP. Another identical 20″×20″ air filter was placed on top of the 1-MCP-loaded activated carbon and secured with a clamp. The apple storage room was vacated by the user and sealed before the fan was turned on. […] The C2H4 sensor was calibrated for 1-MCP by comparison with gas chromatography readings, and reported values in millivolts which were subtracted from baseline readings for the detector and then converted via the calibration curve to concentration measurements. […]

[2] = 1-MCP release, dry forced-air (duct fan) vs water-based release in sealed apple storage room; settings: sealed room 2-6° C.
Method: This example describes a comparison of active ingredient release profiles and rates using a device and system of this disclosure as compared to an existing technique. Specifically, gaseous 1-MCP release via pump-driven gaseous fluid flow was compared to water-based release of 1-MCP.
A pump in the form of a duct fan was placed inside of a 30,624 cubic foot apple storage room kept between 2-6° C. The fan was placed facing up onto two iron bars to allow space for air to enter below the fan. The device was assembled by placing a 12″ mesh sieve on top of the duct fan, to which was added a 1 kg bed of a particulate delivery material in the form of activated carbon powder associated with an activated ingredient in the form of 1-MCP. The sieve and delivery material was then contained by placing a pair of nylon stockings over the opening of the sieve and sealing it all with duct tape. The room was vacated by the user and sealed before the fan was turned on. […] At the same time, a comparative experiment was performed by placing, in an adjacent identical apple storage room, a bucket containing 12 L of distilled water and 4 aerators (each of which produced 0.024 cubic feet per min, 0.096 cubic feet per minute total). […] The 1-MCP levels in the sealed apple storage room for the second, comparative experiment was measured in the same manner as described above.

[3] = 1-MCP release with pump vs without pump in sealed apple storage room; settings: box fan on vs off, first 240 minutes, 0.5 kg activated carbon bed, sealed room 2-6° C.
Method: This example describes the effect of directing gaseous fluid flow through a delivery material on the rate of release of active ingredients. Specifically, gaseous 1-MCP release via pump-driven gas flow was compared to release in the absence of pump-driven flow.
A pump in the form of a 20″×20″ box fan was placed inside of a 33,264 cubic foot apple storage room kept at a temperature between 2-6° C., with the fan facing up and elevated several inches from the ground to allow space for air to enter the fan from below. The device was assembled by placing a metal air filter housing and a 20″×20″ air filter (Nordic Pure® Part 20201.8-3) on top of the fan, to which was added a 0.5 kg bed of a particulate delivery material in the form of activated carbon powder associated with an activated ingredient in the form of 1-MCP. Another identical 20″×20″ air filter was placed on top of the 1-MCP-loaded activated carbon and secured with a clamp. The apple storage room was vacated by the user and sealed before the fan was turned on. At the same time, in an adjacent, identical apple storage room, a second, identical device described above was set up with a 0.5 kg bed of activated carbon powder associated with 1-MCP. However, the fan of this second device was not turned on.

[4] = 1-MCP release rate as a function of air speed; settings: five air speeds and 0 m/s, 0.5 kg activated carbon powder, sealed room of approximately 30,000 cubic feet
Method: This example describes the release rate of an active ingredient from a delivery material as a function of gaseous fluid flow rate through the delivery material. Specifically, the rate of gaseous 1-MCP release via pump-driven air flow was measured as a function of the air flow rate.
In a sealed apple storage room of approximately 30,000 cubic feet, 0.5 kg of a particulate delivery material in the form of activated carbon powder associated with an activated ingredient in the form of 1-MCP was held in front of pumps in the form of fans with known air speeds for greater than 2 hours each. The fan type and geometry was varied to access various air speeds. The concentration of 1-MCP in the atmosphere of the sealed apple storage room was monitored using measurements from a detector making use of the C2H4 sensor described in Example 1, and release rates were calculated at five different air speeds, as well as at a flow rate of 0 m/s.

## CC1=CC1 [1-MCP, 1-methylcyclopropene]
[1]; sealed apple storage room
  measured 1-MCP level in room: greater 1-MCP level
[1]; unsealed apple storage room (portal door open)
  measured 1-MCP level in room: significant level of 1-MCP
[2]; dry forced-air release method, duct fan
  duration of sustained release: > 170 min
[2]; initial slope of concentration profiles, 1 kg activated carbon bed
  increase in rate of release, dry forced-air release vs water-based release: 16 fold
[3]
  1-MCP release with pump compared to no pump: released at a greater rate and in greater amounts
[4]
  1-MCP release rate as a function of air speed: greater rate when faster air speeds were used
